According to patent US20030153548A1, “Histamine-3 receptor ligands for diabetic conditions” (priority 2002, published 2003):

What was measured:
[1] = system: C57BL-6J mice fed a high-fat diet; test: Serum triglyceride levels in mice fed a high-fat diet; format: in vivo; settings: FIG. 2
[2] = system: C57BL-6J mice fed a high-fat diet; test: Insulin tolerance test in mice fed a high-fat diet; format: in vivo; settings: FIG. 1
Protocol: Assessment of the ability of H3 receptor antagonists to ameliorate symptoms of diabetes has been determined in several ways. In the first instance, effects of an H3 antagonist on the insulin tolerance test in mice fed a high-fat diet were determined. C57BL-6J mice (aged 5-6 weeks) were obtained from Jackson Labs (Bar Harbor, Me., U.S.A.) and individually housed at Abbott facilities under conditions of 12 h lights on, 12 h lights off (on at 22:00), with food and water available ad libitum. […] Nine days prior to drug treatment, postprandial blood glucose was determined via a Medisense-G glucometer (Abbott Laboratories, Medisense Division, Bedford, Mass., U.S.A.). […] On day 21, animals were fasted for 3 hours and fasting blood glucose determined in a blood sample obtained by tail snip. Insulin tolerance was determined by administering insulin (Lilly Humulin-R, 0.25 U/kg, i.p., obtained from Eli Lilly and Company, Indianapolis, Ind., U.S.A.) with blood glucose measured at 30, 60, 90 and 120 minutes using the glucometer. […] The 4′-{3-[(3R)-3-(dimethylamino)pyrrolidinyl]propoxy} [1,1′-biphenyl]-4-carbonitrile compound was administered p.o. at doses of 0.5, 5, and 15 mg/kg b.i.d., and dexfenfluramine at a dose of 10 mg/kg p.o., b.i.d. Data were analyzed using GraphPad InStat® (San Diego, Calif., U.S.A.) software using a one-way ANOVA software followed by Dunnett's post hoc test.

CC(C)CC(N(C)C)C1(c2ccc(Cl)cc2)CCC1 (centres unmarked) [sibutramine, reference compound]
triglyceride levels (effects as of Compound B) ([1]; 5 mg/kg p.o. b.i.d., after 13 days): not seen

CN(C)C1CCN(CCCOc2c(F)cc(-c3ccc(C#N)cc3)cc2F)C1 (centres unmarked) [Compound B]
triglyceride levels ([1]; 10 mg/kg p.o. b.i.d., after 13 days): reduced to the same level as those seen in low-fat diet fed mice
triglyceride levels ([1]; 1, 3 and 10 mg/kg p.o. b.i.d., postprandial blood after 13 days): clear, dose-dependent decrease

CN(C)[C@@H]1CCN(CCCOc2ccc(-c3ccc(C#N)cc3)cc2)C1 [Compound A, 4′-{3-[(3R)-3-(dimethylamino)pyrrolidinyl]propoxy}[1,1′-biphenyl]-4-carbonitrile]
insulin tolerance test (blood glucose after insulin) ([2]; 15 mg/kg p.o. twice daily): completely normalized
insulin tolerance test (blood glucose after insulin) ([2]; 0.5, 5 and 15 mg/kg p.o. b.i.d., day 21, insulin 0.25 U/kg i.p.): dose-dependent improvement
